# Tested on: HL-60 (Homo sapiens)
# Test: Antiallergic activity in Ca(2+)-stimulated differentiated human HL-60 cells assessed as inhibition of cys-leukotriene release after 6 days by ELISA
# Conditions: HL-60, 144 h
row,SMILES,IC50
1,O=C(/C=C/c1ccc(O)c(O)c1)OCCc1ccccc1 [CAFFEIC ACID PHENETHYL ESTER],0.068 µg/mL
2,CC(Cc1ccc(O)c(O)c1)C(C)Cc1ccc(O)c(O)c1 (centres undefined) [NORDIHYDROGUAIARETIC ACID],0.08 µg/mL
3,CC(C)=CCc1cc(/C=C/C(=O)OCCc2ccccc2)cc(CC=C(C)C)c1O [ARTEPILLIN C PHENETHYL ESTER],0.094 µg/mL
4,O=C(O)/C=C/c1ccc(O)c(O)c1 [CAFFEIC ACID],44 µg/mL
5,CC(C)=CCc1cc(/C=C/C(=O)O)ccc1O [DRUPANIN],10.3 µg/mL
6,COc1ccc(-c2oc3cc(O)cc(O)c3c(=O)c2O)cc1 [KAEMPFERIDE],2 µg/mL
7,O=c1c(O)c(-c2ccc(O)cc2)oc2cc(O)cc(O)c12 [KAEMPFEROL],2.4 µg/mL
8,CC(C)=CCc1cc(/C=C/C(=O)OCCc2ccccc2)cc2c1OC(C)(C)C=C2 [CULIFOLIN PHENETHYL ESTER],> 10 µg/mL
9,CC(C)=CCc1cc(/C=C/C(=O)OCCc2ccccc2)ccc1OC(=O)CCc1ccccc1 [BACCHARIN PHENETHYL ESTER],> 10 µg/mL
10,CC(C)=CCc1cc(/C=C/C(=O)O)cc(CC=C(C)C)c1O [ARTEPILLIN],7 µg/mL
11,CC(C)=CCc1cc(/C=C/C(=O)O)cc2c1OC(C)(C)C=C2 [CULIFOLIN],1.6 µg/mL
12,CC(c1cc2ccccc2s1)N(O)C(N)=O (centres undefined) [ZILEUTON],0.04 µg/mL
13,O=C1C[C@@H](c2ccccc2)Oc2cc(O)cc(O)c21 [PINOCEMBRIN],6.1 µg/mL
14,CC(C)=CCc1cc(/C=C/C(=O)OCCc2ccccc2)ccc1O [DRUPANIN PHENETHYL ESTER],0.2 µg/mL

# — ChEMBL document CHEMBL1157687, “Inhibitory activity of Brazilian green propolis components and their derivatives on the release of cys-leukotrienes” (Bioorg Med Chem, 2010)
